Patent US10947252B2, “Inhibitors of KEAP1-Nrf2 protein-protein interaction” (Janssen Pharmaceutica NV, priority 2018, dated 2021)

Legend:
[1] = target: Kelch domain of human KEAP1 (321-624 aa) (Homo sapiens (Human), UniProt Q14145); test: KEAP1 KELCH ThermoFluor binding assay; conditions: KEAP Kelch […], 1,8-ANS, pH 7.0, average of results obtained, read-out: Tf Kd;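 also: Ligand-induced melting temperature shift of E. coli-expressed KEAP1 Kelch protein, Kd estimated from concentration-response curves of ΔTm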
Kelch domain of human KEAP1 (321-624 aa), sequence (Q14145 321-624): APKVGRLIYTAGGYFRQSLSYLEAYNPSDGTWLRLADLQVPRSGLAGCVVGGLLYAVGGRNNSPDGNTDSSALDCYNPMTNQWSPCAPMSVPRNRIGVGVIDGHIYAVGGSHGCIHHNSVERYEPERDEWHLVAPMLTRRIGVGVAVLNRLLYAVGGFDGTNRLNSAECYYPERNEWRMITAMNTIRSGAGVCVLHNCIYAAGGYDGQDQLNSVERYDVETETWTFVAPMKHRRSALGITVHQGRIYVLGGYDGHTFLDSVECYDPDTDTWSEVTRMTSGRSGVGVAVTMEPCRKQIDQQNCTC

[2] = tested on: Glo-Response ARE-luc2P HEK293 cell line; test: ARE luciferase reporter cell-based assay; conditions: Homo sapiens, HEK293, 24 h, average of results obtained;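 also: luciferase signal tracks Nrf2 activation of the ARE once compounds disrupt KEAP1-Nrf2 binding, read with One-Glo reagent, DMSO serving as low control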

| Kd [1] [nM] | SMILES | EC50 [2] [nM] |
| --- | --- | --- |
| < 1 | Cc1ccc([C@H](c2ccn3c(C(F)(F)F)nnc3c2C)C(C)(C)C(=O)O)cc1CN1CC2(CC2)Oc2nc(N[C@@H](C)CN3CCCCC3)c(C)cc2S1(=O)=O (single isomer, unassigned) [Example 380, (*R)-2,2-Dimethyl-3-(4-methyl-3-((8′-methyl-1′,1′-dioxido-7′-(((S)-1-piperidin-1-yl)propan-2-yl)amino)spiro[cyclopropane-1,4′-pyrido [2,3-b][1,4,5]oxathiazepin]-2′(3′H)-yl)methyl)phenyl)-3-(8-methyl-3-(trifluoromethyl)-[1,2,4]triazolo[4,3-a]pyridine-7-yl)propanoic Acid] | 14.1 |
| < 1 | Cc1ccc(C(CC(=O)O)c2ccn3c(C(F)F)nnc3c2C)cc1CN1CC2(CCOCC2)Oc2ccc(F)cc2S1(=O)=O (centres unmarked) [Example 523, 3-(3-(Difluoromethyl)-8-methyl-[1,2,4]triazolo[4,3-a]pyridin-7-yl)-3-(3-((8-fluoro-1,1-dioxido-2′,3′,5′,6′-tetrahydrospiro[benzo[b][1,4,5]oxathiazepine-4,4′-pyran]-2(3H)-yl)methyl)-4-methylphenyl)propanoic Acid] | 23.9 |
| 1190 | Cc1cnc([C@H](c2ccn3c(C(F)F)nnc3c2C)C(C)(C)C(=O)O)cc1CN1CC2(CC2)Oc2nc(OCCN3CCCC3)c(C)cc2S1(=O)=O (single isomer, unassigned) [Example 635, (*R)-3-(3-(Difluoromethyl)-8-methyl-[1,2,4]triazolo[4,3-a]pyridin-7-yl)-2,2-dimethyl-3-(5-methyl-4-((8′-methyl-1′,1′-dioxido-7′-(2-(pyrrolidin-1-yl)ethoxy)spiro[cyclopropane-1,4′-pyrido[2,3-b][1,4,5]oxathiazepin]-2′(3′H)-yl)methyl)pyridin-2-yl)propanoic Acid] | 3590 |
| 150 | Cc1ccc([C@H](CC(=O)O)c2ccn3c(C(F)F)nnc3c2C)cc1CN1CC2(CC2)Oc2ncc(C(N)=O)cc2S1(=O)=O (single isomer, unassigned) [Example 552, (*S)-3-(3-((8′-Carbamoyl-1′,1′-dioxidospiro[cyclopropane-1,4′-pyrido[2,3-b][1,4,5]oxathiazepin]-2′(3′H)-yl)methyl)-4-methylphenyl)-3-(3-(difluoromethyl)-8-methyl-[1,2,4]triazolo[4,3-a]pyridin-7-yl)propanoic Acid] | > 20000 |
| < 1 | Cc1ccc(C(CC(=O)O)c2ccn3c(C(F)(F)F)nnc3c2C)nc1CN1CC2CCCCN2c2ncc(C#N)cc2S1(=O)=O (centres unmarked) [Example 33, 3-(6-((3-Cyano-5,5-dioxido-7,7a,8,9,10,11-hexahydro-6H-dipyrido[2,1-d:2′,3′-f][1,2,5]thiadiazepin-6-yl)methyl)-5-methylpyridin-2-yl)-3-(8-methyl-3-(trifluoromethyl)-[1,2,4]triazolo[4,3-a]pyridin-7-yl)propanoic Acid] | 30.6 |
| < 1 | Cc1ccc([C@H](c2ccn3c(C(F)(F)F)nnc3c2C)[C@H](C)C(=O)O)cc1CN1CC2(CC2)Oc2ncccc2S1(=O)=O (single isomer, unassigned) [Example 554, (2S,3*R)-3-(3-(Trifluoromethyl)-8-methyl-[1,2,4]triazolo[4,3-a]pyridin-7-yl)-3-(3-((1′,1′-dioxidospiro[cyclopropane-1,4′-pyrido[2,3-b][1,4,5]oxathiazepin]-2′(3′H)-yl)methyl)-4-methylphenyl)-2-methylpropanoic Acid] | 181 |
| < 1 | Cc1ccc([C@@H](c2ccn3c(C(F)(F)F)nnc3c2C)C(C)(C)C(=O)O)cc1CN1CC2(CCOCC2)Oc2nc(CCC(N)=O)ccc2S1(=O)=O (single isomer, unassigned) [Example 599, (*S)-3-(3-((7′-(3-amino-3-oxopropyl)-1′,1′-dioxido-2,3,5,6-tetrahydrospiro[pyran-4,4′-pyrido[2,3-b][1,4,5]oxathiazepin]-2′(3′H)-yl)methyl)-4-methylphenyl)-2,2-dimethyl-3-(8-methyl-3-(trifluoromethyl)-[1,2,4]triazolo[4,3-a]pyridine-7-yl)propanoic Acid] | 246 |
| < 1 | Cc1c([C@@H](CC(=O)O)c2ccc(Cl)c(CN3CC4CCCCN4c4ncccc4S3(=O)=O)c2)ccn2c(C(F)(F)F)nnc12 (single isomer, unassigned) [Example 84, (*S)-3-(4-Chloro-3-(((*S)-5,5-dioxido-7,7a,8,9,10,11-hexahydro-6H-dipyrido[2,1-d:2′,3′-][1,2,5]thiadiazepin-6-yl)methyl)phenyl)-3-(8-methyl-3-(trifluoromethyl)-[1,2,4]triazolo[4,3-a]pyridine-7-yl)propanoic Acid] | 80.5 |
| < 1 | Cc1ccc([C@@H](c2ccn3c(C(F)(F)F)nnc3c2C)C(C)(C)C(=O)O)cc1CN1CC2(CC2)Oc2nc(OCCN3CCCCC3)c(C)cc2S1(=O)=O (single isomer, unassigned) [Example 372, (*S)-2,2-Dimethyl-3-(4-methyl-3-((8′-methyl-1′,1′-dioxido-7′-(2-(piperidin-1-yl)ethoxy)spiro[cyclopropane-1,4′-pyrido[2,3-b][1,4,5]oxathiazepin]-2′(3′H)-yl)methyl)phenyl)-3-(8-methyl-3-(trifluoromethyl)-[1,2,4]triazolo[4,3-a]pyridine-7-yl)propanoic Acid] | 2.9 |
| < 1 | Cc1ccc(C(CC(=O)O)c2ccn3c(C4CC4)nnc3c2C)cc1CN1C[C@H]2CCCN2c2ncccc2S1(=O)=O (mixture of isomers) [Example 167, (R/S)-3-(3-Cyclopropyl-8-methyl-[1,2,4]triazolo[4,3-a]pyridin-7-yl)-3-(3-(((R)-5,5-dioxido-7a,8,9,10-tetrahydropyrido[2,3-f]pyrrolo[2,1-d][1,2,5]thiadiazepin-6(7H)-yl)methyl)-4-methylphenyl)propanoic Acid] | 1140 |
| < 1 | Cc1ccc([C@@H](CC(=O)O)c2ccc3c(nnn3CC3CC3)c2C)cc1CN1C[C@H]2CCCCN2c2ncccc2S1(=O)=O (single isomer, unassigned) [Example 235, (*R)-3-(1-(Cyclopropylmethyl)-4-methyl-1H-benzo[d][1,2,3]triazol-5-yl)-3-(3-(((*R)-5,5-dioxido-7,7a,8,9,10,11-hexahydro-6H-dipyrido[2,1-d:2′,3′-f][1,2,5]thiadiazepin-6-yl)methyl)-4-methylphenyl)propanoic Acid] | 1.9 |
| 0.264 | Cc1ccc([C@H](CC(=O)O)c2ccc3c(nnn3C3CC3)c2C)cc1CN1C[C@@H]2COCCN2c2ncccc2S1(=O)=O (single isomer, unassigned) [Example 24, (*S)-3-(1-Cyclopropyl-4-methyl-1H-benzo[d][1,2,3]triazol-5-yl)-3-(3-(((*R)-5,5-dioxido-7a,8,10,11-tetrahydro-[1,4]oxazino[3,4-d]pyrido[2,3-f][1,2,5]thiadiazepin-6(7H)-yl)methyl)-4-methylphenyl)propanoic Acid] | 4.1 |
| < 1 | Cc1ccc([C@H](c2ccn3c(C(F)(F)F)nnc3c2C)C(C)(C)C(=O)O)cc1CN1CC2(CCOCC2)Oc2nc(NC3CC(O)C3)c(C)cc2S1(=O)=O (stereo in doubt) [Example 125, (*R)-3-(3-((7′-(((1s,3S)-3-Hydroxycyclobutyl)amino)-8′-methyl-1′,1′-dioxido-2,3,5,6-tetrahydrospiro[pyran-4,4′-pyrido[2,3-b][1,4,5]oxathiazepin]-2′(3′H)-yl)methyl)-4-methylphenyl)-2,2-dimethyl-3-(8-methyl-3-(trifluoromethyl)-[1,2,4]triazolo[4,3-a]pyridine-7-yl)propanoic Acid] | 140 |
| < 1 | Cc1ccc([C@@H](c2ccn3c(C(F)(F)F)nnc3c2C)C(C)(C)C(=O)O)cc1CN1CC2(CC2)Oc2nc(OCCN3CCOCC3)c(C)cc2S1(=O)=O (single isomer, unassigned) [Example 597, (*S)-2,2-dimethyl-3-(4-methyl-3-((8′-methyl-7′-(2-morpholinoethoxy)-1′,1′-dioxidospiro[cyclopropane-1,4′-pyrido[2,3-b][1,4,5]oxathiazepin]-2′,(3′H)-yl)methyl)phenyl)-3-(8-methyl-3-(trifluoromethyl)-[1,2,4]triazolo[4,3-a]pyridine-7-yl)propanoic Acid] | 2.79 |
| < 1 | Cc1cnc([C@@H](c2ccn3c(C(F)F)nnc3c2C)C(C)(C)C(=O)O)cc1CN1CC2(CCOCC2)Oc2nc(OCCN3CCCC3)c(C)cc2S1(=O)=O (single isomer, unassigned) [Example 640, (*S)-3-(3-(Difluoromethyl)-8-methyl-[1,2,4]triazolo[4,3-a]pyridin-7-yl)-2,2-dimethyl-3-(5-methyl-4-((8′-methyl-1′,1′-dioxido-7′-(2-(pyrrolidin-1-yl)ethoxy)-2,3,5,6-tetrahydrospiro[pyran-4,4′-pyrido[2,3-b][1,4,5]oxathiazepin]-2′(3′H)-yl)methyl)pyridin-2-yl)propanoic Acid] | 73.9 |

| SMILES | Kd [1] [nM] | EC50 [2] [nM] |
| --- | --- | --- |
| Cc1ccc([C@@H](c2ccn3c(C(F)(F)F)nnc3c2C)C(C)(C)C(=O)O)cc1CN1CC2(CC2)Oc2nc(OCCN3CCCC3)ccc2S1(=O)=O (single isomer, unassigned) [Example 598, (*S)-3-(3-((1′,1′-dioxido-7′-(2-(pyrrolidine-1-yl)ethoxy)spiro[cyclopropane-1,4′-pyrido[2,3-b][1,4,5]oxathiazepin]-2′(3′H)-yl)methyl)-4-methylphenyl)-2,2-dimethyl-3-(8-methyl-3-(trifluoromethyl)-[1,2,4]triazolo[4,3-a]pyridine-7-yl)propanoic Acid] | < 1 | 8.85 |
